In patent US8299048B2, “Hexahydrocyclopentyl[f]indazole sulfonamides and derivatives thereof as selective glucocorticoid receptor modulators” (Merck Sharp & Dohme Corp., priority 2008, dated 2012):

Target: T1, glucocorticoid receptor (Homo sapiens, UniProt P04150)
T1 construct: endogenous in cells
T1 sequence (P04150 1-777): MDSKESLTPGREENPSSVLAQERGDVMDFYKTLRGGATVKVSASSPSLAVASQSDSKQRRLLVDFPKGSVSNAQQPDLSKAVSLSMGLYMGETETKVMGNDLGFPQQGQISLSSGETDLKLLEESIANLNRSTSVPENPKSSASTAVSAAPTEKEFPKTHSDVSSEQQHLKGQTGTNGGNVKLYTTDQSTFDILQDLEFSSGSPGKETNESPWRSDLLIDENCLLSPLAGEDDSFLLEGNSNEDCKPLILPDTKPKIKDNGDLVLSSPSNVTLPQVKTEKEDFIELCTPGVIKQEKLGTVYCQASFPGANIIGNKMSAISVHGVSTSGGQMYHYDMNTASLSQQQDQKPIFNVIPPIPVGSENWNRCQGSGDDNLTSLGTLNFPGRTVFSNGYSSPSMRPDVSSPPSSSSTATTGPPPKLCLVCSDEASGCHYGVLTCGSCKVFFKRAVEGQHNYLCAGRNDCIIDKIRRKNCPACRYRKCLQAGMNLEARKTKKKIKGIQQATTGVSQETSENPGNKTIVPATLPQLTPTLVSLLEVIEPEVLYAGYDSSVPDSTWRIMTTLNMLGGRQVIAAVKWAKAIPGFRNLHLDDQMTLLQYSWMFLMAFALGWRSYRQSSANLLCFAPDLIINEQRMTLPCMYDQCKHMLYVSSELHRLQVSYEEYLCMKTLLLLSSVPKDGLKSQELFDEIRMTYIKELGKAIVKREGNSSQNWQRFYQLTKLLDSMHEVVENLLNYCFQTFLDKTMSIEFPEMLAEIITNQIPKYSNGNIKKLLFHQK
Assay: Ligand binding assay (GR BIND)
Summary of the method: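 Displacement of tritiated dexamethasone (6 nM trace solution) from receptor in cell supernatant was measured after overnight incubation at 4 °C in molybdate-containing TEGM, pH 7.2, 2% ethanol. Hydroxylapatite pulled down the receptor–ligand complex for filter washing and scintillation counting, with dexamethasone as reference.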

Row | SMILES | Ki
1 | C[C@]12Cc3cnn(-c4ccc(F)cc4)c3C=C1CC[C@@H]2CN(CCO)S(=O)(=O)c1cc(C(F)(F)F)ccc1Cl [Example 80, 2-chloro-N-{[(4αR,5S)-1-(4-fluorophenyl)-4α-methyl-1,4,4α,5,6,7-hexahydrocyclopenta[f]indazol-5-yl]methyl}-N-(2-hydroxyethyl)-5-(trifluoromethyl)benzenesulfonamide] | 13.7 nM
2 | Cc1ccccc1S(=O)(=O)N(CCO)C[C@H]1CCC2=Cc3c(cnn3-c3ccc(F)cc3)C[C@@]21C [Example 77, N-{[(4αR,5S)-1-(4-fluorophenyl)-4α-methyl-1,4,4α,5,6,7-hexahydrocyclopenta[f]indazol-5-yl]methyl}-N-(2-hydroxyethyl)-2-methylbenzenesulfonamide] | 1.8 nM
3 | Cc1ccc(S(=O)(=O)N(CCO)C[C@H]2CCC3=Cc4c(cnn4-c4ccc(F)cc4)C[C@@]32C)s1 [Example 64, N-{[(4αR,5S)-1-(4-fluorophenyl)-4α-methyl-1,4,4α,5,6,7-hexahydrocyclopenta[f]indazol-5-yl]methyl}-N-(2-hydroxyethyl)-5-methylthiophene-2-sulfonamide] | 3 nM
4 | CNC(=O)Nc1ccc(S(=O)(=O)N(CCO)C[C@H]2CCC3=Cc4c(cnn4-c4ccc(F)cc4)C[C@@]32C)c(Cl)c1 [Example 76, 2-chloro-N-{[(4αR,5S)-1-(4-fluorophenyl)-4α-methyl-1,4,4α,5,6,7-hexahydrocyclopenta[f]indazol-5-yl]methyl}-N-(2-hydroxyethyl)-4-{[(methylamino)carbonyl]amino}-benzenesulfonamide] | 7.7 nM
5 | Cc1nn(C)c(Cl)c1S(=O)(=O)N(CCO)C[C@H]1CCC2=Cc3c(cnn3-c3ccc(F)cc3)C[C@@]21C [Example 83, 5-chloro-N-{[(4αR,5S)-1-(4-fluorophenyl)-4α-methyl-1,4,4α,5,6,7-hexahydrocyclopenta[f]indazol-5-yl]methyl}-N-(2-hydroxyethyl)-1,3-dimethyl-1H-pyrazole-4-sulfonamide] | 3.7 nM
6 | CCCS(=O)(=O)N(CCc1ccccc1F)C[C@H]1CCC2=Cc3c(cnn3-c3ccc(F)cc3)C[C@@]21C [Example 87, N-[2-(2-fluorophenyl)ethyl]-N-{[(4αR,5S)-1-(4-fluorophenyl)-4α-methyl-1,4,4α,5,6,7-hexahydrocyclopenta[f]indazol-5-yl]methyl}propane-1-sulfonamide] | 2.8 nM
7 | C[C@]12Cc3cnn(-c4ccc(F)cc4)c3C=C1CC[C@@H]2CN(CCc1ccccc1F)S(=O)(=O)Cc1cccc(C(F)(F)F)c1 [Example 88, N-[2-(2-fluorophenyl)ethyl]-N-{[(4αR,5S)-1-(4-fluorophenyl)-4α-methyl-1,4,4α,5,6,7-hexahydrocyclopenta[f]indazol-5-yl]methyl}-1-[3-(trifluoromethyl)phenyl]methanesulfonamide] | 3.7 nM
8 | Cn1nc(C(F)(F)F)cc1-c1ccc(S(=O)(=O)N(CCO)C[C@H]2CCC3=Cc4c(cnn4-c4ccc(F)cc4)C[C@@]32C)s1 [Example 67, N-{[(4αR,5S)-1-(4-fluorophenyl)-4α-methyl-1,4,4α,5,6,7-hexahydrocyclopenta[f]indazol-5-yl]methyl}-N-(2-hydroxyethyl)-5-[1-methyl-3-(trifluoromethyl)-1H-pyrazole-5-yl]thiophene-2-sulfonamide] | 13.4 nM
9 | C[C@]12Cc3cnn(-c4ccc(F)cc4)c3C=C1CC[C@@H]2CN(CCc1ccccc1Cl)S(=O)(=O)c1ccccc1F [Example 92, N-[2-(2-chlorophenyl)ethyl]-2-fluoro-N-{[(4αR,5S)-1-(4-fluorophenyl)-4α-methyl-1,4,4α,5,6,7-hexahydrocyclopenta[f]indazol-5-yl]methyl}benzenesulfonamide] | 3 nM
10 | COCCN(C[C@H]1CCC2=Cc3c(cnn3-c3ccc(F)cc3)C[C@@]21C)S(=O)(=O)c1ccccc1F [Example 94, 2-fluoro-N-{[(4αR,5S)-1-(4-fluorophenyl)-4α-methyl-1,4,4α,5,6,7-hexahydrocyclopenta[f]indazol-5-yl]methyl}-N-(2-methoxyethyl)benzenesulfonamide] | 2.9 nM
11 | Cc1ccc(CCN(C[C@H]2CCC3=Cc4c(cnn4-c4ccc(F)cc4)C[C@@]32C)S(=O)(=O)c2ccccc2F)cc1 [Example 91, 2-fluoro-N-{[(4αR,5S)-1-(4-fluorophenyl)-4α-methyl-1,4,4α,5,6,7-hexahydrocyclopenta[f]indazol-5-yl]methyl}-N-[2-(4-methylphenyl)ethyl]benzenesulfonamide] | 2 nM
12 | C[C@]12Cc3cnn(-c4ccc(F)cc4)c3C=C1CC[C@@H]2CN(CCO)S(=O)(=O)Cc1ccccc1 [Example 75, N-{[(4αR,5S)-1-(4-fluorophenyl)-4α-methyl-1,4,4α,5,6,7-hexahydrocyclopenta[f]indazol-5-yl]methyl}-N-(2-hydroxyethyl)-1-phenylmethanesulfonamide] | 2.5 nM
13 | C[C@]12Cc3cnn(-c4ccc(F)cc4)c3C=C1CC[C@@H]2CN(CCO)S(=O)(=O)c1cc(F)cc(F)c1 [Example 72] | 1.4 nM
14 | C[C@]12Cc3cnn(-c4ccc(F)cc4)c3C=C1CC[C@@H]2CN(CC1CC1)S(=O)(=O)c1ccccc1F [Example 2, N-(cyclopropylmethyl)-2-fluoro-N-{[(4αR,5S)-1-(4-fluorophenyl)-4α-methyl-1,4,4α,5,6,7-hexahydrocyclopenta[f]indazol-5-yl]methyl}benzenesulfonamide] | 0.6 nM
15 | COC(=O)c1ccccc1S(=O)(=O)N(CCO)C[C@H]1CCC2=Cc3c(cnn3-c3ccc(F)cc3)C[C@@]21C [Example 73, methyl 2-{[{[(4αR,5S)-1-(4-fluorophenyl)-4α-methyl-1,4,4α,5,6,7-hexahydrocyclopenta[f]indazol-5-yl]methyl}(2-hydroxyethyl)amino]sulfonyl}benzoate] | 3.1 nM
16 | C[C@]12Cc3cnn(-c4ccc(F)cc4)c3C=C1CC[C@@H]2CN(CCc1ccccn1)S(=O)(=O)Cc1cccnc1 [Example 1, N-{[(4αR,5S)-1-(4-Fluorophenyl)-4α-methyl-1,4,4α,5,6,7-hexahydrocyclopenta[f]indazol-5-yl]methyl}-1-pyridin-3-yl-N-(2-pyridin-2-ylethyl)methanesulfonamide] | 1.8 nM
17 | C[C@]12Cc3cnn(-c4ccc(F)cc4)c3C=C1CC[C@@H]2CN(CC1CC1)S(=O)(=O)c1ccccc1C(F)(F)F [Example 4, N-(cyclopropylmethyl)-N-{[(4αR,5S)-1-(4-fluorophenyl)-4α-methyl-1,4,4α,5,6,7-hexahydrocyclopenta[f]indazol-5-yl]methyl}-2-(trifluoromethyl)benzenesulfonamide] | 2.2 nM
18 | CC(=O)Nc1ccc(S(=O)(=O)N(CCO)C[C@H]2CCC3=Cc4c(cnn4-c4ccc(F)cc4)C[C@@]32C)cc1 [Example 85, N-(4-{[{[(4αR,5S)-1-(4-fluorophenyl)-4α-methyl-1,4,4α,5,6,7-hexahydrocyclopenta[f]indazol-5-yl]methyl}(2-hydroxyethyl)amino]sulfonyl}phenyl)acetamide] | 6.9 nM
19 | Cc1cc(S(=O)(=O)N(CCO)C[C@H]2CCC3=Cc4c(cnn4-c4ccc(F)cc4)C[C@@]32C)c(C)o1 [Example 66, N-{[(4αR,5S)-1-(4-fluorophenyl)-4α-methyl-1,4,4α,5,6,7-hexahydrocyclopenta[f]indazol-5-yl]methyl}-N-(2-hydroxyethyl)-2,5-dimethylfuran-3-sulfonamide] | 7.9 nM
20 | CC(C1CCC2=Cc3c(cnn3-c3ccc(F)cc3)C[C@@]21C)N(CCc1ccccc1F)S(=O)(=O)CC(F)(F)F (stereo partly drawn) [Example 93, 2,2,2-trifluoro-N-[2-(2-fluorophenyl)ethyl]-N-{1-[(4αR)-1-(4-fluorophenyl)-4α-methyl-1,4,4α,5,6,7-hexahydrocyclopenta[f]indazol-5-yl]ethyl}ethanesulfonamide] | 2.7 nM
21 | C[C@]12Cc3cnn(-c4ccc(F)cc4)c3C=C1CC[C@@H]2CN(CCO)S(=O)(=O)c1ccc(Oc2ccccn2)cc1 [Example 74, N-{[(4αR,5S)-1-(4-fluorophenyl)-4α-methyl-1,4,4α,5,6,7-hexahydrocyclopenta[f]indazol-5-yl]methyl}-N-(2-hydroxyethyl)-4-(pyridin-2-yloxy)benzenesulfonamide] | 3 nM
22 | C[C@]12Cc3cnn(-c4ccc(F)cc4)c3C=C1CC[C@@H]2CN(CCO)S(=O)(=O)c1ccccc1C(F)(F)F [Example 70, N-{[(4αR,5S)-1-(4-fluorophenyl)-4α-methyl-1,4,4α,5,6,7-hexahydrocyclopenta[f]indazol-5-yl]methyl}-N-(2-hydroxyethyl)-2-(trifluoromethyl)benzenesulfonamide] | 4.5 nM
23 | C[C@]12Cc3cnn(-c4ccc(F)cc4)c3C=C1CC[C@@H]2CN(CCc1ccccc1F)S(=O)(=O)c1ccccc1F [Example 86, 2-fluoro-N-[2-(2-fluorophenyl)ethyl]-N-{[(4αR,5S)-1-(4-fluorophenyl)-4α-methyl-1,4,4α,5,6,7-hexahydrocyclopenta[f]indazol-5-yl]methyl}benzenesulfonamide] | 4.2 nM
